We go through 15 compounds from patent US5635534A, “Aromatic amino-alcohol derivatives having anti-diabetic and anti-obesity properties, their preparation and their therapeutic uses” (Sankyo Company, Limited, priority 1991, dated 1997).

The IC50 is the concentration needed to halve the response being measured. A higher IC50 goes with weaker potency. As a reminder, the inhibition is how much of the control response was suppressed. Higher therefore signals strong suppression.

In data set [1] the target is T1, Bovine lens aldose reductase (Bos taurus, UniProt P16116).
T1 construct: Bovine lens aldose reductase was separated and partially purified; from tissue; host or cells: bovine lens
Description: Inhibition of Aldose reductase. In kind it is biochemical. The note with it: for inhibition at 5 µg/mL: 5 μg/ml. How it is done: Inhibition of Aldose reductase
Bovine lens aldose reductase was separated and partially purified by the method of S. Hyman and J. H. Kinoshita [J. Biol. Chem., 240, 877 (1965)] and K. Inagaki, I. Miwa and J. Okuda [Arch. Biochem. Biophys., 316, 337 (1982)], and its activity was determined photometrically by the method of Varma et al. [Biochem. Pharmac., 25, 2505 (1976)]. Inhibition of enzyme activity was measured for the compounds of the present invention at a concentration of 5 μg/ml, and the results are shown in the following Table 10.

In another data set the test system is KK male mice. Description: Hypoglycemic effect during glucose load in mice. The format is in vivo, mouse. The note with it: 1 mg/kg oral, 4 mice; for inhibition in vivo at 1 mg/kg: Mus musculus, po. Here is the method: Hypoglycemic effect during glucose load
The hypoglycemic effect of the compounds of the present invention during glucose load in mice was measured as follows.
Three month old KK male mice, each weighing 28 to 30 g, were fasted overnight, and then 1 mg/kg of the compound to be tested or carboxymethylcellulose (CMC) as a control was administered orally. After 60 minutes, 1.2 g/kg of D-glucose was administered subcutaneously. Then, at 60 and 120 minutes after the subcutaneous glucose injection, blood samples were taken, and the glucose levels were determined by means of a glucose analyzer (GL-101, a product of Mitsubishi Kasei, Co.). The hypoglycemic rates (R) of the test compound during the glucose load were calculated according to the following equation: […]
A: Blood glucose level in the group administered CMC
B: Blood glucose level in the group administered a test sample.

Data set [2] has as its system male mice of the ddY strain. Description: Toxicity, oral administration to mice, one week observation. In kind it is in vivo, mouse. The note with it: 300 mg/kg oral; for survival at the end of the period of observation: groups of 3, one week; for abnormalities which could be attributed to the test compounds: groups of 3, one week observation. How it is done:
The test animals employed were male mice of the ddY strain. The animals were employed in groups of 3. The test compound was administered orally to each animal group at a dose of 300 mg/kg body weight. The compounds employed were those prepared as described in Examples 1, 3, 8, 24, 47 and 48.

Where [3] appears, read: 1 h, 60 min after subcutaneous glucose 1.2 g/kg, read-out: Hypoglycemic rate during glucose load, 60 min.
The mark [4] stands for this setting: 2 h, 120 min after subcutaneous glucose 1.2 g/kg, read-out: Hypoglycemic rate during glucose load, 120 min.

Structures can show the parent of a compound that is named as a salt. Where two headings read alike, the source gives them in different places.

For the compound `CC(COc1ccc(CC(=O)O)cc1Cl)NCC(O)c1cccc(Cl)c1` (stereo not shown) [Example 36, 2-[2-(4-Carboxymethyl-2-chlorophenoxy)-1-methylethyl]amino-1-(3-chlorophenyl)ethanol], in data set [1], the IC50 was 7.28 µM and testing at 5 µg/mL gave an inhibition of 60.4%.

On to `COC(=O)Cc1ccc(OCC(C)NCC(O)c2ccc(F)c(Cl)c2)cc1` (stereo not shown) [Example 41, 2-[2-(4-Methoxycarbonylmethylphenoxy)-1-methylethyl]amino-1-(3-chloro-4-fluorophenyl)ethanol], for which the inhibition in vivo at 1 mg/kg in the data set on KK male mice (setting [3]) amounted to 50.1%; with KK male mice (setting [4]), 43%.

As to `COC(=O)Cc1ccc(OC[C@@H](C)NC[C@H](O)c2ccccc2)cc1` [Example 27, 2-[2-(4-Methoxycarbonylmethylphenoxy)-1(R)-methylethyl]amino-1(R)-phenylethanol], the results for the inhibition in vivo at 1 mg/kg in the data set on KK male mice (setting [3]) and with KK male mice (setting [4]) were 68.4% and 52.1%, respectively.

Take `COC(=O)Cc1ccc(OCC(C)NCC(O)c2cccc(Br)c2)cc1` (stereo not shown) [Example 42, 2-[2-(4-Methoxycarbonylmethylphenoxy)-1-methylethyl]amino-1-(3-bromophenyl)ethanol]: the values for the inhibition in vivo at 1 mg/kg with KK male mice (setting [3]) and in the data set with KK male mice (setting [4]) were 60.9% and 57.6%, respectively.

With `CC(COc1ccc(CCO)cc1)NCC(O)c1cccc(Cl)c1` (stereo not shown) [Example 8, 2-{2-[4-(2-Hydroxyethyl)phenoxy]-1-methylethyl}amino-1-(3-chlorophenyl)ethanol], the inhibition in vivo at 1 mg/kg with KK male mice (setting [3]) is 56.8%; in the data set with KK male mice (setting [4]) it was 45.1%.

Regarding `CC(COc1ccc(CC(=O)NO)cc1Cl)NCC(O)c1cccc(Cl)c1` (stereo not shown) [Example 34, 2-{2-[2-Chloro-4-(N-hydroxycarbamoylmethyl)phenoxy]-1-methylethyl}amino-1-(3-chlorophenyl)ethanol], in data set [1], the IC50 was 6.05 µM and the inhibition at 5 µg/mL came to 63.3%.

Turning to `COC(=O)C(O)Cc1ccc(OCC(C)NCC(O)c2cccc(Cl)c2)cc1` (stereo not shown) [Example 6, 2-{2-[4-(2-Methoxycarbonyl-2-hydroxyethyl)phenoxy]-1-methylethyl}amino-1-(3-chlorophenyl)ethanol], the values for the inhibition in vivo at 1 mg/kg with KK male mice (setting [3]) and with KK male mice (setting [4]) were 43.4% and 40.5%, respectively.

As to `COC(=O)Cc1ccc(OCC(C)NCC(O)c2cccc(C(F)(F)F)c2)cc1` (stereo not shown) [Example 43, 2-[2-(4-Methoxycarbonylmethylphenoxy)-1-methylethyl]amino-1-(3-trifluoromethylphenyl)ethanol], the values for the inhibition in vivo at 1 mg/kg in the data set with KK male mice (setting [3]) and with KK male mice (setting [4]) were 66.5% and 58.6%, respectively.

Regarding `COC(=O)Cc1ccc(OCC(C)NCC(O)c2cccc(Cl)c2)cc1` (stereo not shown) [Example 24, 2-[2-(4-Methoxycarbonylmethylphenoxy)-1-methylethyl]amino-1-(3-chloropbenyl)ethanol fumarate], the “Hypoglycemic rate during glucose load, 60 min.” value with KK male mice (60 min after subcutaneous glucose 1.2 g/kg) worked out at 61.4%. Besides, the “Hypoglycemic rate during glucose load, 120 min.” value with KK male mice (120 min after subcutaneous glucose 1.2 g/kg) is recorded as 56.9%.

For the compound `COC(=O)Cc1ccc(OCC(C)NCC(O)c2cccc(Cl)c2)cc1` (stereo not shown) [Example 3, 2-[2-(4-Methoxycarbonylmethylphenoxy)-1-methylethyl]-amino-1-(3-chlorophenyl)ethanol], the inhibition in vivo at 1 mg/kg in the data set with KK male mice (setting [3]) amounted to 67.3%; with KK male mice (setting [4]), 56.5%.

Consider `COC(=O)Cc1ccc(OCC(C)NCC(O)c2cccc(OC)c2)cc1` (stereo not shown) [Example 44, 2-[2-(4-Methoxycarbonylmethylphenoxy)-1-methylethyl]amino-1-(3-methoxyphenyl)ethanol], for which the values for the inhibition in vivo at 1 mg/kg in the data set on KK male mice (setting [3]) and with KK male mice (setting [4]) were 38.1% and 24.8%, respectively.

For `CC(COc1ccc(CO)cc1)NCC(O)c1cccc(Cl)c1` (stereo not shown) [Example 1, 2-[2-(4-Hydroxymethylphenoxy)-1-methylethyl]-amino-1-(3-chlorophenyl)ethanol], in data set [2], the “survival at the end of the period of observation” value is “All animals were alive” and the “abnormalities which could be attributed to the test compounds” value is on record as “no abnormalities”.

For the compound `COC(=O)Cc1ccc(OC[C@@H](C)NC[C@H](O)c2cccc(Cl)c2)cc1.O=C(O)/C=C/C(=O)O` [Example 47, 2-[2-(4-Methoxycarbonylmethylphenoxy)-1(R)-methylethyl]amino-1(R)-(3-chlorophenyl)ethanol fumarate], the “survival at the end of the period of observation” value in data set [2] is “All animals were alive”. Besides, the “abnormalities which could be attributed to the test compounds” value in data set [2] was “no abnormalities”. The results for the inhibition in vivo at 1 mg/kg with KK male mice (setting [3]) and in the data set on KK male mice (setting [4]) were 60.9% and 51.5%, respectively.

For the compound `C[C@H](COc1ccc(CC2SC(=O)NC2=O)cc1)NC[C@H](O)c1cccc(Cl)c1` (stereo partly drawn) [Example 48, 5-[4-{2(R)-[2(R)-(3-Chlorophenyl)-2-hydroxyethylamino]propoxy}benzyl]thiazolidine-2,4-dione], the inhibition at 5 µg/mL in data set [1] is 47.5%.

As to `COC(=O)Cc1ccc(OCC(C)NCC(O)c2cc(Cl)cc(Cl)c2)cc1` (stereo not shown) [Example 40, 2-[2-(4-Methoxycarbonylmethylphenoxy)-1-methylethyl]amino-1-(3,5-dichlorophenyl)ethanol], the inhibition in vivo at 1 mg/kg in the data set with KK male mice (setting [3]) came out at 37.9%; with KK male mice (setting [4]), 24.5%.
